# Measured values as given in PMC8047011, “Enantiomers of 2-methylglutamate and 2-methylglutamine selectively impact mouse brain metabolism and behavior” (Scientific Reports, 2021).
# Target: T1, human glutaminase GLS1 (Homo sapiens, UniProt O94925)
# T1 sequence (O94925 55-669): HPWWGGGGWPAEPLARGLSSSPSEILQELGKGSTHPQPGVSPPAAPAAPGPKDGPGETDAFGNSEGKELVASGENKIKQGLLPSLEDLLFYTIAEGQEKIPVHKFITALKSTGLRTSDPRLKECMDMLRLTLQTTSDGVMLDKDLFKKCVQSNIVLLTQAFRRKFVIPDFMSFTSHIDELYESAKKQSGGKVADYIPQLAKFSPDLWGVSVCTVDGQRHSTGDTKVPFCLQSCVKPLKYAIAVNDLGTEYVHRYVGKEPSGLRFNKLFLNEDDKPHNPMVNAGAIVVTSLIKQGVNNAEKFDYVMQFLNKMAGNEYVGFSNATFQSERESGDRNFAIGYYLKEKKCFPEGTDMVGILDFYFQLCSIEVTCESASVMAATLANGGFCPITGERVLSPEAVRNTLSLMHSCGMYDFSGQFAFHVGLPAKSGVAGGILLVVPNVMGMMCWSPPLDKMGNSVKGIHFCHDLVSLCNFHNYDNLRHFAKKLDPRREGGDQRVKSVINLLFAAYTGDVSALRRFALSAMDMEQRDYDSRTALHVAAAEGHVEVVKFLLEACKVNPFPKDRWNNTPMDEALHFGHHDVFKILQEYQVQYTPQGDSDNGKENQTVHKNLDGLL
# Assay: Catalysis of 2MeGln hydrolysis by GLS1 glutaminase
# Assay type: biochemical
# Method: The procedure was adapted from an existing protocol. To a reaction mixture in a 1.5 mL microcentrifuge tube containing 10 mM rac-2MeGln or L-Gln-^13C2 in 100 mM phosphate pH 7.4 buffer made in 20% atom ^18O water, recombinant GLS1 (final concentration: 5 ng/mL) was added. The tubes were incubated in a preheated thermomixer at 37 °C and periodically shaken at 600 rpm (30 s on, 30 s off). 5 μL aliquots were collected in triplicate every 5 min and immediately diluted with 195 μL of cold 60% ACN containing 10 μM Glu-d5 and Gln-d5 as internal standards in a 96 well plate. After collecting all samples, the plate was shaken at 1000 rpm for 5 min at room temperature, and then stored at − 80 °C. Before analysis the plate was thawed and 10 μL aliquots of the extracted reaction mixtures were diluted with 190 μL of 90% acetonitrile.
# The quantification of the newly formed 2MeGlu in the presence of the preexisting trace amounts was performed in the following way. Peak area ratio of Glu-^13C2 to Glu-^13C2^18O was calculated in all samples containing Glu-^13C2. The mean ratio value was then applied to calculate the hypothetical peak area of the newly formed 2MeGlu based on the directly measured 2MeGlu-^18O peak area. The ratio of the newly formed 2MeGlu peak area and the total 2MeGlu peak area was applied to calculate the concentration of the newly formed 2MeGlu from the total 2MeGlu concentration determined directly using the calibration curve.
smiles,measurement,setting,value
"CC(N)(CCC(N)=O)C(=O)O (racemic) [rac-2MeGln, rac-2-methylglutamine]",Substrate for GLS1,,"at least one enantiomer of 2MeGln is a substrate for human GLS1, albeit relatively slow"
same,"Apparent GLS1 reaction rate, fold lower compared to Gln",10 mM substrate,approximately 35 fold
same,Apparent reaction rate of GLS1 hydrolysis,"10 mM substrate, 5 ng/mL enzyme, phosphate pH 7.4",1.9 µM/min
